Experimental data as given in patent US7786112B2, “Inhibitors of cyclin-dependent kinases, compositions and uses related thereto” (Agennix USA Inc., priority 2003, dated 2010).
Each block holds one compound with its values, some of them ahead of it.

How the values were obtained:
[1] = system: HCT-116; test: Calcein AM viability assay, HCT-116; format: cell-based; settings: Homo sapiens, HCT-116, non-protein adjusted, Table 6
Method: The potency of Cdk inhibitors, as measured by loss of cellular viability, was determined with the Calcein AM assay (Molecular Probes). Calcein AM is a substrate of intracellular esterases, which is cleaved only in viable cells to generate a fluorescent product that can be quantified with a fluorescent plate reader. The fluorescent signal is proportional to the number of viable cells, and thus loss of signal in response to the exposure of cells to Cdk inhibitors correlates with a loss of viability. This assay can distinguish cell cycle arrest, in which cells may still by viable, from loss of viability and is thus well suited for the evaluation of Cdk inhibitors. A compound that is a potent cytotoxic, may cause significant loss of cell viability in such assay.
Cellular IC50's were determined in the human colorectal carcinoma cell line, HCT-116, and the normal human fibroblast, IMR90. Protein adjusted IC50's were also determined in HCT-116.
HCT-116 or IMR90 cells were recovered from sub-confluent plates by trypsinization and 1,000 or 4,000 cells, respectively, were plated in 24-well dishes and incubated overnight at 37° C., 5% CO2. HCT-116 cells were cultured in RPMI-1640, 10% FCS, and IMR90 cells were cultured in Minimum Essential Medium-alpha, 10% FCS. After overnight incubation to allow adherence, the media was aspirated from each well and replaced with media containing a test compound at a concentration from 0 to 250 nM, spanning a total of 7 doses. The plates were returned to the incubator and cultured for an additional 72 hours (3 days). […] After 72-hours incubation with the test compound, the cells were washed twice with 1×PBS, taking special care to remove all residual buffer.
A 5 μM Calcein AM solution was prepared by dissolving a 50 μg aliquot of Calcein (Molecular Probes catalog # C3100) in 50 μl DMSO. After the Calcein had completely dissolved (10 minutes at room temperature), it was diluted into 10 ml PBS. Calcein/PBS (0.5 ml) was added to each well. The plates were incubated for 75 minutes at 37° C. (protected from light) and the fluorescent signal was read on a fluorescent plate reader (excitation 485/20 and emission 530/25).

[2] = system: HCT-116 cells; test: Cell cycle analysis with propidium iodide (FACS); format: cell-based, human; settings: HCT-116, PI FACS
Method: The percentage of cells in the G1, S and G2/M phases of the cell cycle was determined by staining DNA with propidium iodide and quantifying the number of cells with a 2N or 4N DNA complement by flow cytometry. Alterations in the distribution of cells across the cell cycle in response to exposure to the Cdk inhibitors was evaluated in this manner.
3 sets of HCT-116 cells (100,000 cells/set) were cultured in the presence of a test compound in T-25 flasks according to Table 1 below. Analysis was performed at 24, 48 and 72 hours. Adherent cells were collected by trypsinization, combined with floating cells in Falcon 12×75 flow cytometric tubes, and harvested by centrifugation. The media was decanted from the cell pellet, 100 μl of PI stain was added and the cells were incubated at 37° C. for 20-25 minutes. The cell count was preferably no greater than 2×10^6-4×10^6/ml. An equal volume (100 μl) of PI salt was then added to the cells, which were then incubated at 4° C. for 1-2 hours. The stained cells were analyzed on a Becton Dickinson FACScan flow cytometer. Samples were protected from light.

[3] = system: HCT-116 cells; test: Clonogenic survival assay; format: cell-based, human; settings: HCT-116 clonogenic time-course, at 100 nM
Method: This assay was used to determine the concentration of a compound that results irreversible loss of viability after a specified period of exposure. Essentially, cells are exposed to compound for a period of 1, 2 or 5 days, and are then transferred to compound-free growth medium. After continued incubation in the compound-free medium for a number of days, the number of colonies recovered is counted as an estimate of the number of surviving cells.
Media (RPMI-1640, 10% FCS, pen/strep) was pre-warmed to 37° C. in a water bath. Cells were incubated and grown at 37° C., 5% CO2. Cells were recovered by trypsinization from sub-confluent plates and counted using a hemocytometer. 1×10^4 cells were plated in 25 mls of media in a 15 cm tissue culture dish. 14 plates were set up for each test compound, and were incubated overnight at 37° C. The compound was diluted into media at 7 concentrations and the media on the cells was replaced with that containing the test compound. Two plates were set up for each concentration of the compound to be tested, as well as two control plates without compound. […] Colonies were stained with crystal violet solution (0.4% crystal violet, 20% ethanol) for 5 minutes, washed twice with distilled water, and counted.

[4] = target: T1, Cdc2/cyclin B (Homo sapiens, UniProt P06493); test: Cdc2/cyclin B kinase assay (Histone H1, TCA precipitation); format: biochemical; settings: Table 6
T1 construct: purchased
T1 sequence (P06493 whole entry, species assumed): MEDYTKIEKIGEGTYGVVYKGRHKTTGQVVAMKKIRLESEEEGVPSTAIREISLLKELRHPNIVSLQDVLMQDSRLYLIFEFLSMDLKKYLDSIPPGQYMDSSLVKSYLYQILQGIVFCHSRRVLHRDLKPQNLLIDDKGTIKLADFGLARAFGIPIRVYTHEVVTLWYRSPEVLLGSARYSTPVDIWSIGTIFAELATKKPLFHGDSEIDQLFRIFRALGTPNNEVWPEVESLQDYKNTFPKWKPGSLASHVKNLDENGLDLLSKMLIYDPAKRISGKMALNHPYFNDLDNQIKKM
T1 sequence (P14635 whole entry partner, species assumed): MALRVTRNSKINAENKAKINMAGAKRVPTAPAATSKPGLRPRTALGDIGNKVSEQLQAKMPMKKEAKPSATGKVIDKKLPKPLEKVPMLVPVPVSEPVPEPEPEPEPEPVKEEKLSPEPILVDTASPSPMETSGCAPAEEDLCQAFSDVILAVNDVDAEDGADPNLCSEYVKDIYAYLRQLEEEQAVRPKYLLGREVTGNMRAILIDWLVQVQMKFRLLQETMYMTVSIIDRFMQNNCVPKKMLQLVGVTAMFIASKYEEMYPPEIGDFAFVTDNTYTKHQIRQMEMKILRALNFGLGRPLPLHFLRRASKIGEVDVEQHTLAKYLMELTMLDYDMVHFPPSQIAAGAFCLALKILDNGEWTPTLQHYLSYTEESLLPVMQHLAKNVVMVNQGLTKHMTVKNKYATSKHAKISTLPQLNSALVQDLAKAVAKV
Source text: (§1) Enzymes: Cdc2/cyclin B was obtained from commercial sources. Cdk2/his-cyclin Eshort was expressed in Sf9 cells. Cdk2/cyclin A, cdk4/cyclin D1, and cdk6/cyclin D2 were expressed in Sf9 cells. Protein kinase A (catalytic subunit, from bovine heart) and protein kinase C (mixed isozymes from rat brain) were obtained from commercial sources.
(§2) Substrates: Histone H1 was from commercial sources. GST-Rb is glutathione-S-transferase fused to the N-terminal of residues 379-928 of the Rb protein.
Assays: Cdc2/cyclinB activity was determined by measuring incorporation of radio-activity from adenosine [γ-^32P]triphosphate into Histone H1 using a TCA precipitation assay. Cdc2/cyclin B kinase and Histone H1 were obtained from commercial sources. […] The filter was washed ten times with 25% (w/v) trichloroacetic acid, and the amount of incorporated ^32P was determined by scintillation counting after adding 100 μL scintillant (Microscint 20, Packard Instruments). Relative activity was determined by dividing the amount of radioactivity incorporated in the presence of compound by the amount of radioactivity incorporated in a control experiment containing DMSO alone but no compound. The background radioactivity, determined in an experiment containing 50 mM EDTA in place of compound, was subtracted from all results before calculations. […]

[5] = target: T2, Cdk4/cyclin D1 (Homo sapiens, UniProt P11802); test: Cdk4/cyclin D1 kinase assay (GST-Rb, glutathione-sepharose capture); format: biochemical; settings: Table 6
T2 construct: made in house; host or cells: Sf9 insect cells
T2 sequence (P11802 whole entry, species assumed): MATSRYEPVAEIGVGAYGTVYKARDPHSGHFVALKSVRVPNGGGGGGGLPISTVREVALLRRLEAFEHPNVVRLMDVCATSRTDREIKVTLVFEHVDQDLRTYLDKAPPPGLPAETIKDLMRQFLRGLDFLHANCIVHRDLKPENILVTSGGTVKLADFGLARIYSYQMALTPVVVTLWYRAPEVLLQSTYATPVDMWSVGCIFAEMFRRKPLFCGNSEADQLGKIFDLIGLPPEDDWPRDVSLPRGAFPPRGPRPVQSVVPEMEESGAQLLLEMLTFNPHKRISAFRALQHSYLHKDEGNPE
T2 sequence (P24385 whole entry partner, species assumed): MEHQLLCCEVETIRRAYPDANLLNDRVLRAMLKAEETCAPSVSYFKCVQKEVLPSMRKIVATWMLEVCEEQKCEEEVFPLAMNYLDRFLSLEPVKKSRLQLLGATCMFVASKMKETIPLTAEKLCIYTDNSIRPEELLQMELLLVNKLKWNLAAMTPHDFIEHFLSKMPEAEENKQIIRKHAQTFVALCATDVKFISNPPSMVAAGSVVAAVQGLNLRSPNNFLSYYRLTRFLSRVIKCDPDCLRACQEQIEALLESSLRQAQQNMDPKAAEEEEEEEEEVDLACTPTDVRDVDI
Source text: as §1, §2
Cdk2/cyclin E, Cdk2/cyclin A, Cdk4/cyclin D1, and Cdk6/cyclin D2 activity was determined using a glutathione-sepharose capture assay. […] After washing the retained beads five time with phosphate-buffered saline containing 0.3% (w/v) Tween-20, the amount of ^33P incorporated was determined by scintillation counting after adding 100 μL scintillant. Relative activity was determined by dividing the amount of radioactivity incorporated in the presence of compound by the amount of radioactivity incorporated in a control experiment containing DMSO alone but no compound. The background radioactivity, determined in an experiment containing 50 mM disodium ethylenediamine tetraacetate in place of compound, was subtracted from all results before calculations.

[6] = target: protein kinase C (mixed isozymes from rat brain); test: Protein kinase C assay (Histone H1, TCA precipitation); format: biochemical; settings: Table 5; read-out: PKC IC50
Method: as §1
Protein kinase C and protein kinase A were assayed using a TCA precipitation assay with Histone H1 as a substrate. For protein kinase A, the final assay contained 50 mM Tris, 10 mM MgCl2, 1 mM dithiothreitol, pH 7.5, 12 μM adenosine triphosphate, 10% (v/v) dimethylsulfoxide (from compounds), 20 μg Histone H1, 2 μCi [γ-^32P] adenosine triphosphate, 0.2 U protein kinase A in a 100 μL assay. A protein kinase C assay contained 50 mM Tris, 10 mM MgCl2, 1 mM dithiothreitol, 0.8 mM CaCl2, pH 7.5, 5 μM adenosine triphosphate, 10% (v/v) dimethylsulfoxide (from compounds), 20 μg Histone H1, 2 μCi [γ-^32P] adenosine triphosphate, 0.01 U protein kinase C in a 50 μL assay. The assays were started by the addition of enzyme, allowed to react for 10 min at 30° C., and stopped by adding 0.4 volumes of 237 mM disodium ethylenediamine tetraacetate, 105 mM adenosine triphosphate, pH 8.0. […] The filters were washed ten times with 25% (w/v) trichloroacetic acid, and the amount of incorporated [^32P]phosphate was determined by adding 100 μl Microscint and scintillation counting.

SMILES: CC(C)c1nn(-c2c(Cl)cc(Cl)cc2Cl)c2nc(Cc3ccc(OCCO)cc3)[nH]c(=O)c12 [Compound A61]
- IC50 [1]: < 0.1 µM

SMILES: CC(C)c1nn(-c2c(Cl)cc(Cl)cc2Cl)c2nc(Cc3ccc(NS(=O)(=O)CCCN4CCCC4)cc3)[nH]c(=O)c12 [Compound A38]
- IC50 [1]: < 0.1 µM

SMILES: CC(C)N1CCN(C(=O)COc2ccc(-c3[nH]nc4c3C(=O)c3c(NC(=O)NN5CCOCC5)cccc3-4)cc2)CC1.Cl [Compound A37]
- Effect on cell cycle distribution [2]: terminally arrested in G1 and G2, with evidence of apoptosis and endo-reduplication

SMILES: Cc1nc(Cc2nc3c(c(C(C)C)nn3-c3c(Cl)cccc3Cl)c(=O)[nH]2)cs1 [Compound A58]
- IC50 [1]: < 0.1 µM

SMILES: COCCN1CCN(Cc2ccc(-c3[nH]nc4c3C(=O)c3c(NC(=O)NN5CCOCC5)cccc3-4)cc2)CC1.Cl.Cl [Compound B16, N-[3-(4-{[4-(2-methoxyethyl)piperazinyl]methyl}phenyl)-4-oxoindeno[2,3-d]pyrazol-5-yl](morpholin-4-ylamino)carboxamide dihydrochloride]
- Time within which IC50 is reached [3]: 30 to 60 min
- Effect on cell cycle distribution [2]: Analogous results

SMILES: CC(C)c1nn(-c2c(Cl)cccc2Cl)c2nc(Cc3ccc(OCCOC(=O)[C@@H](N)C(C)C)cc3)[nH]c(=O)c12 [Compound A60]
- IC50 [4]: < 1 µM
- IC50 [5]: < 10 µM

SMILES: CC(C)c1nn(-c2c(Cl)cccc2Cl)c2nc(Cc3ccc(OCCO)cc3)[nH]c(=O)c12 [Compound A59]
- IC50 [1]: < 0.1 µM

- IC50 [6]: < 10 µM
SMILES: CC(C)N1CCN(CCOc2ccc(-c3[nH]nc4c3C(=O)c3c(NC(=O)NN5CCOCC5)cccc3-4)cc2)CC1 [E]

- IC50 [6]: > 10 µM
SMILES: CC(C)c1nn(-c2c(Cl)cccc2Cl)c2nc(Cc3ccc(O)c(CN4CCN(C(C)C)CC4)c3)[nH]c(=O)c12 [Compound C]

SMILES: CC(C)c1nn(-c2c(Cl)cc(Cl)cc2Cl)c2nc(Cc3ccc(NS(=O)(=O)CCCN4CCN(C(C)C)CC4)cc3)[nH]c(=O)c12 [Compound A39]
- IC50 [1]: < 0.1 µM

SMILES: COc1ccc(Cc2nc3c(c(C(C)C)nn3-c3c(Cl)cccc3Cl)c(=O)[nH]2)cc1 [Compound A67]
- IC50 [1]: < 0.1 µM
